The results in this text go back to US11450805B2, “Compound, semiconductor material, and methods for manufacturing coating and semiconductor using the same” (Merck Patent GmbH, priority 2016, dated 2022).

The data set in a line: Evaluation of solubility of solute in solvents (visual inspection). It is filed as physicochemical. Conditions: stirring at room temperature for 60 minutes; for Solubility, solvent PGME:EL = 7:3: PGME:EL = 7:3 volume ratio; for Solubility, solvent PGME:PGMEA = 7:3: PGME:PGMEA = 7:3 volume ratio. Here is the method:
Comparative compound 1 was added as a solute to each of the various solvents listed in Table 1 in an amount of 10% by mass, and mixed with the solvent by stirring at room temperature for 60 minutes. When 10% by mass of the solute was not fully dissolved in the solvent, the amount of the solute added was changed to 1% by mass, and 1% by mass of the solute was mixed with the solvent in the same manner as above.
The state of dissolution of the solute was visually inspected and evaluated as follows.
A: Even when the amount of the solute mixed with the solvent was 10% by mass, the solute was fully dissolved.
B: When the amount of the solute mixed with the solvent was 10% by mass, the solute was not fully dissolved and some of it remained undissolved, while when the amount of the solute mixed with the solvent was 1% by mass, the solute was fully dissolved.
C: Even when the amount of the solute mixed with the solvent was 1% by mass, the solute was not fully dissolved and some of it remained undissolved.
Experiments were conducted in the same manner as above, except for changing the solute from comparative compound 1 to other compounds listed in Table 1.

Structures are written as SMILES.

Consider `Oc1ccc(-c2c(-c3ccccc3)c(-c3ccccc3)c(-c3c4ccccc4c(-c4c(-c5ccccc5)c(-c5ccccc5)c(-c5ccc(O)cc5)c(-c5ccc(O)cc5)c4-c4ccccc4)c4ccccc34)c(-c3ccccc3)c2-c2ccc(O)cc2)cc1` [G2], for which the “Solubility, solvent PGME:EL = 7:3” value is on record as “A (Even when the amount of the solute mixed with the solvent was 10% by mass, the solute was fully dissolved.)”; the “Solubility, solvent PGME:PGMEA = 7:3” value was “A (Even when the amount of the solute mixed with the solvent was 10% by mass, the solute was fully dissolved.)”; the “Solubility, solvent PGME” value is recorded as “A (Even when the amount of the solute mixed with the solvent was 10% by mass, the solute was fully dissolved.)”.

Turning to `COc1ccc(-c2c(-c3ccccc3)c(-c3ccccc3)c(-c3ccc(-c4c(-c5ccccc5)c(-c5ccccc5)c(-c5ccc(OC)cc5)c(-c5ccc(OC)cc5)c4-c4ccccc4)cc3)c(-c3ccccc3)c2-c2ccc(OC)cc2)cc1` [Intermediate G0, reference compound], the “Solubility, solvent PGME:EL = 7:3” value was “C (Even when the amount of the solute mixed with the solvent was 1% by mass, the solute was not fully dissolved and some of it remained undissolved.)”; the “Solubility, solvent PGME:PGMEA = 7:3” value was “C (Even when the amount of the solute mixed with the solvent was 1% by mass, the solute was not fully dissolved and some of it remained undissolved.)”; the “Solubility, solvent PGME” value is “C (Even when the amount of the solute mixed with the solvent was 1% by mass, the solute was not fully dissolved and some of it remained undissolved.)”.

As to `Nc1ccc(-c2c(-c3ccccc3)c(-c3ccccc3)c(-c3ccccc3)c(-c3ccccc3)c2-c2ccc(N)cc2)cc1` [G8], the “Solubility, solvent PGME:EL = 7:3” value was “A (Even when the amount of the solute mixed with the solvent was 10% by mass, the solute was fully dissolved.)”; the “Solubility, solvent PGME:PGMEA = 7:3” value is recorded as “A (Even when the amount of the solute mixed with the solvent was 10% by mass, the solute was fully dissolved.)”; the “Solubility, solvent PGME” value is given as “A (Even when the amount of the solute mixed with the solvent was 10% by mass, the solute was fully dissolved.)”.

As to `c1ccc(-c2c(-c3ccccc3)c(-c3ccccc3)c(-c3ccc(-c4c(-c5ccccc5)c(-c5ccccc5)c(-c5ccccc5)c(-c5ccccc5)c4-c4ccccc4)cc3)c(-c3ccccc3)c2-c2ccccc2)cc1` [Comparative compound 1, reference compound], the “Solubility, solvent PGME:EL = 7:3” value was “C (Even when the amount of the solute mixed with the solvent was 1% by mass, the solute was not fully dissolved and some of it remained undissolved.)”; the “Solubility, solvent PGME:PGMEA = 7:3” value is “C (Even when the amount of the solute mixed with the solvent was 1% by mass, the solute was not fully dissolved and some of it remained undissolved.)”; the “Solubility, solvent PGME” value was “C (Even when the amount of the solute mixed with the solvent was 1% by mass, the solute was not fully dissolved and some of it remained undissolved.)”.

As to `Oc1ccc(-c2c(-c3ccccc3)cc(-c3ccc(-c4cc(-c5ccccc5)c(-c5ccc(O)cc5)c(-c5ccc(O)cc5)c4-c4ccccc4)cc3)c(-c3ccccc3)c2-c2ccc(O)cc2)cc1` [G3], the “Solubility, solvent PGME:EL = 7:3” value is listed as “A (Even when the amount of the solute mixed with the solvent was 10% by mass, the solute was fully dissolved.)”; the “Solubility, solvent PGME:PGMEA = 7:3” value was “A (Even when the amount of the solute mixed with the solvent was 10% by mass, the solute was fully dissolved.)”; the “Solubility, solvent PGME” value is reported as “A (Even when the amount of the solute mixed with the solvent was 10% by mass, the solute was fully dissolved.)”.

In the case of `Oc1ccc(-c2c(-c3ccccc3)c(-c3ccccc3)c(-c3ccc(-c4ccc(-c5c(-c6ccccc6)c(-c6ccccc6)c(-c6ccc(O)cc6)c(-c6ccc(O)cc6)c5-c5ccccc5)cc4)cc3)c(-c3ccccc3)c2-c2ccc(O)cc2)cc1` [G6], the “Solubility, solvent PGME:EL = 7:3” value is on record as “A (Even when the amount of the solute mixed with the solvent was 10% by mass, the solute was fully dissolved.)”; the “Solubility, solvent PGME:PGMEA = 7:3” value is on record as “A (Even when the amount of the solute mixed with the solvent was 10% by mass, the solute was fully dissolved.)”; the “Solubility, solvent PGME” value is listed as “A (Even when the amount of the solute mixed with the solvent was 10% by mass, the solute was fully dissolved.)”.

For the molecule `Oc1ccc(-c2c(-c3ccc(O)cc3)c(-c3ccc(O)cc3)c(-c3ccc(O)cc3)c(-c3ccc(O)cc3)c2-c2ccc(O)cc2)cc1` [G5], the “Solubility, solvent PGME:EL = 7:3” value was “A (Even when the amount of the solute mixed with the solvent was 10% by mass, the solute was fully dissolved.)”; the “Solubility, solvent PGME:PGMEA = 7:3” value is “A (Even when the amount of the solute mixed with the solvent was 10% by mass, the solute was fully dissolved.)”; the “Solubility, solvent PGME” value is reported as “A (Even when the amount of the solute mixed with the solvent was 10% by mass, the solute was fully dissolved.)”.

In the case of `Oc1ccc(-c2c(-c3ccccc3)c(-c3ccccc3)c(-c3c(-c4ccccc4)c(-c4c(-c5ccccc5)c(-c5ccccc5)c(-c5ccc(O)cc5)c(-c5ccc(O)cc5)c4-c4ccccc4)c(-c4ccccc4)c(-c4c(-c5ccccc5)c(-c5ccccc5)c(-c5ccc(O)cc5)c(-c5ccc(O)cc5)c4-c4ccccc4)c3-c3ccccc3)c(-c3ccccc3)c2-c2ccc(O)cc2)cc1` [G7], the “Solubility, solvent PGME:EL = 7:3” value was “B (When the amount of the solute mixed with the solvent was 10% by mass, the solute was not fully dissolved and some of it remained undissolved, while when the amount of the solute mixed with the solvent was 1% by mass, the solute was fully dissolved.)”; the “Solubility, solvent PGME:PGMEA = 7:3” value was “B (When the amount of the solute mixed with the solvent was 10% by mass, the solute was not fully dissolved and some of it remained undissolved, while when the amount of the solute mixed with the solvent was 1% by mass, the solute was fully dissolved.)”; the “Solubility, solvent PGME” value is given as “A (Even when the amount of the solute mixed with the solvent was 10% by mass, the solute was fully dissolved.)”.

Consider `Oc1ccc(-c2c(-c3ccccc3)c(-c3ccccc3)c(-c3ccc(-c4c(-c5ccccc5)c(-c5ccccc5)c(-c5ccc(O)cc5)c(-c5ccc(O)cc5)c4-c4ccccc4)cc3)c(-c3ccccc3)c2-c2ccc(O)cc2)cc1` [G1], for which the “Solubility, solvent PGME:EL = 7:3” value is recorded as “A (Even when the amount of the solute mixed with the solvent was 10% by mass, the solute was fully dissolved.)”; the “Solubility, solvent PGME:PGMEA = 7:3” value is on record as “A (Even when the amount of the solute mixed with the solvent was 10% by mass, the solute was fully dissolved.)”; the “Solubility, solvent PGME” value is on record as “A (Even when the amount of the solute mixed with the solvent was 10% by mass, the solute was fully dissolved.)”.
